Test results taken from patent US20240240126A1, “Microfluidic Barcode-Like Cell Sensor For Microscope-Free Quantitative Detection Of Small Amount Of Cells” (Hong Kong Baptist University, priority 2021, published 2024).
Values after ≈ are worked out from the molar mass of the structure shown.

Columns and labels:
[1] = system: S. aureus; conditions: CLSI reference range; cited from earlier work
[2] = system: S. aureus; test: AST with the present barcode cell sensor (PP microfluidic AST chip); assay type: cell-based, Staphylococcus aureus (ATCC 29213)
Experimental: (§1) To conduct an AST on the PP-based AST chip, bacteria were pre-activated inside an incubator for 15 minutes at 37° C. before use. At the beginning of a test, the bacteria are injected through Inlet 3; the injection of the bacteria was monitored under the fluorescence microscope (FIG. 24A). After the bacteria were inoculated into the cultivation chambers, antibiotic-doped media and media alone are injected into inlet 1 and inlet 2 at a rate of 1 μL/minute, respectively (FIG. 24B). The AST chip was then incubated on a thermostat platform at 37° C. for 2 hours. To assess AMR, the bacteria inside the culture chambers of the PP AST chip were flushed into the barcode cell sensor at a rate of 1 μL/minute. Gram staining agent was used during the flushing process to make bacteria inside the barcode cell sensor visible be captured by a cell phone camera. For comparison, AST was also performed using the traditional broth microdilution method as shown in FIG. 27; the MIC values of the bacteria were assessed as the lowest concentration of antibiotics with no visible growth of bacteria.

[3] = system: identified isolates (isolates 1-8); test: AST of the identified drinking water isolates, overall statement; assay type: cell-based; conditions: all identified isolates 1-8
Experimental: (§2) The broth microdilution (BMD) testing of the samples was performed exactly the same according to the approved standard from CLSI and the procedures described in Nature Protocol. To perform the BMD test, both LB broth medium and the antibiotics were added into the 96-wells microplate. By using a two-fold dilution, a concentration gradient of the antibiotic is generated from 128 μg/mL to 0.125 μg/mL. The bacteria isolates identified inside the samples have been enriched under 37° C. for 8-12 hrs in order to achieve 5×10^6 CFU/mL before the test, 10 uL of the bacterial suspension was inoculated into the broth to achieve a final concentration of bacteria in 5×10^5 CFU/mL. The inoculated microplates were incubated at 37° C. for 16-20 hrs for further inspection. To assess the MIC values for the samples, the microplates were examined visually and the lowest concentration of the antibiotic which prevents visible growth of the bacteria was recorded as the MIC value of that sample. Meanwhile, Mueller Hinton broth was also used to perform the BMD for cross checking purpose; both of the AST results are consistence with the MIC quality control range recommended by CLSI.
(§3) According to the AST results of the present disclosure, all those identified isolates (isolates 1-8) have shown susceptibility to Gentamicin where all of them are resistant to Ampicillin at the same time. […]

[4] = system: Isolate 1; test: Broth microdilution AST of drinking water isolate; assay type: cell-based, Staphylococcus epidermidis; set-up: key: R stands for resistant; conditions: Isolate 1 from drinking water samples
Experimental: (§4) All tested samples were collected between June 2019 to November 2019 according to the guidelines from ISO 18593:2018 Microbiology of the food chain—Horizontal methods for surface sampling. Also, all of the samples were collected from the drinking fountains in government venues and university facilities, at ten different locations. As said, the surface of the outlet for the drinking fountains was tested by swabbing. In simple words, the surfaces of the drinking fountain's outlet were rubbed by a single use sterilize cotton swab and swished into the Lysogeny broth (LB) broth solution for 1 minute to prepare the sample solutions. Collected samples were kept at 4° C. during the transportation and enriched for 12-14 hours under 37° C. After the enrichment for bacteria, the sample suspensions were spread and streaked onto the LB agar for further bacterial isolation and AST uses. […] If an ID is needed, dilution plating can be used. Besides, antifungals and algal inhibitors can also be added into these samples to against and inhibit the growth of fungi, yeast, and algae.
(§5) All tested samples were collected from drinking fountains at ten different locations in various government venues and university facilities. Sample containers were kept sterile before use in sample collection; the collected samples were kept at 4° C. and analyzed within 24 hours of collection. Sample collection was conducted 3 times for each sampling site and the antimicrobial susceptibility of each sample was tested 3 times. (FIG. 5) Bacterial identification for the real samples was made through the use of Matrix-Assisted Laser Desorption Ionization Time of Flight Imaging Mass Spectrometry (MALDI-TOF IMS). 1 uL of the sample was pipetted onto an Indium tin oxide (ITO) coated glass slide and allowed to dry on a hotplate; the ITO slide with bacteria was then analyzed by MALDI-TOF IMS immediately following matrix application. (FIG. 6, Table 2)
(§6) The broth microdilution (BMD) testing of the samples was performed exactly the same according to the approved standard from CLSI and the procedures described in Nature Protocol. To perform the BMD test, both LB broth medium and the antibiotics were added into the 96-wells microplate. By using a two-fold dilution, a concentration gradient of the antibiotic is generated from 128 μg/mL to 0.125 μg/mL. […] To assess the MIC values for the samples, the microplates were examined visually and the lowest concentration of the antibiotic which prevents visible growth of the bacteria was recorded as the MIC value of that sample. […]

[5] = system: Isolate 5; test: Broth microdilution AST of drinking water isolate; assay type: cell-based, Staphylococcus epidermidis; set-up: key: R stands for resistant; conditions: Isolate 5 from drinking water samples
Experimental: as §4, §5, §6

[6] = system: E. coli; test: Broth microdilution AST; assay type: cell-based, Escherichia coli (ATCC 25922)
Experimental: as §1, with “Gram staining agent was used during the flushing process to make bacteria inside the barcode cell sensor visible be captured by a cell phone camera.” left out
(§7) The broth microdilution (BMD) testing of the samples was performed exactly the same according to the approved standard from CLSI and the procedures described in Nature Protocol. […] To assess the MIC values for the samples, the microplates were examined visually and the lowest concentration of the antibiotic which prevents visible growth of the bacteria was recorded as the MIC value of that sample.

[7] = system: Isolate 7; test: Broth microdilution AST of drinking water isolate; assay type: cell-based, Citrobacter youngae; set-up: key: R stands for resistant; conditions: Isolate 7 from drinking water samples
Experimental: as §4, §5, §2
(§8) Based on the findings in the present disclosure, multiple bacterial species have been recognized in the testing samples, including bacterial species that have the potential to form biofilm and colonize on the surface of the water dispenser (Table 2). Traditional broth microdilution AST was also performed to verify the AMR assessment results of the present sensor according to the approved standard from CLSI (FIGS. 27A and 27B, Table 4). […] As AMR microbes can exist in the environment all around us, close enough to come into contact with in daily life, they may pose a significant threat to the effective treatment of bacterial infections in the near future if no action is taken. […]

[8] = system: Isolate 6; test: Broth microdilution AST of drinking water isolate; assay type: cell-based, Citrobacter youngae; set-up: key: R stands for resistant; conditions: Isolate 6 from drinking water samples
Experimental: as §4, §5, §2, §8

[9] = system: Isolate 2; test: Broth microdilution AST of drinking water isolate; assay type: cell-based, Citrobacter youngae; set-up: key: R stands for resistant; conditions: Isolate 2 from drinking water samples
Experimental: as §4, §5, §2, §8

[10] = system: mixed bacteria sample; test: Broth microdilution AST of mixed bacteria sample; assay type: cell-based
Experimental: as §2, §3

[11] = system: S. aureus; test: Broth microdilution AST; assay type: cell-based, Staphylococcus aureus (ATCC 29213)
Experimental: as §1, with “Gram staining agent was used during the flushing process to make bacteria inside the barcode cell sensor visible be captured by a cell phone camera.” left out
as §7

[12] = system: Isolate 3; test: Broth microdilution AST of drinking water isolate; assay type: cell-based, Staphylococcus capitis; set-up: key: R stands for resistant; conditions: Isolate 3 from drinking water samples
Experimental: as §4, §5, §2, §8

[13] = system: Isolate 4; test: Broth microdilution AST of drinking water isolate; assay type: cell-based, Staphylococcus capitis; set-up: key: R stands for resistant; conditions: Isolate 4 from drinking water samples
Experimental: as §4, §5, §2, §8

[14] = system: Isolate 8; test: Broth microdilution AST of drinking water isolate; assay type: cell-based, Staphylococcus capitis; set-up: key: R stands for resistant; conditions: Isolate 8 from drinking water samples
Experimental: as §4, §5, §2, §8

[15] = system: E. coli; conditions: CLSI reference range; cited from earlier work
[16] = system: E. coli; test: AST with the present barcode cell sensor (PP microfluidic AST chip); assay type: cell-based, Escherichia coli (ATCC 25922)
Experimental: as §1, with “Gram staining agent was used during the flushing process to make bacteria inside the barcode cell sensor visible be captured by a cell phone camera.” left out
As said, the bacteria samples have been flushed into the “barcode” cell sensor after 2 hours incubation, the accumulated bacteria bars with different lengths will be formed. […] Thus, the MIC value of the samples can be assessed by looking at the point (in a specific concentration of a given antibiotic) of the bacterial growth with significant differences using the comparison of the log [slope] values. […]

Row | Compound | MIC-CLSI [1] | MIC-"barcode" Chip [2] | AST result in words (susceptibility / resistance) [3] | AST result (MIC) [4] | AST result (MIC) [5] | MIC-Broth Microdilution [6] | AST result (MIC) [7] | AST result (MIC) [8] | AST result (MIC) [9] | MIC value ([10]; FIG. 27A) | MIC-Broth Microdilution [11] | AST result (MIC) [12] | AST result (MIC) [13] | AST result (MIC) [14] | MIC-CLSI [15] | MIC ([2]; Staphylococcus aureus) | MIC ([11]; Staphylococcus aureus) | MIC-"barcode" Chip [16] | AST result in words ([10]; FIG. 27B)
1 | Gentamicin | 0.12 to 1 µg/mL | 0.25 to 0.5 µg/mL | susceptibility | 4 µg/mL | 4 µg/mL | 0.25 to 0.5 µg/mL | 16 to 32 µg/mL | 2 to 4 µg/mL | 16 µg/mL | 4 to 8 µg/mL | 0.25 to 0.5 µg/mL | 16 µg/mL | 16 to 32 µg/mL | 16 to 32 µg/mL | 0.25 to 1 µg/mL |  |  |  | 
2 | CC[C@H]1OC(=O)[C@H](C)[C@@H](O[C@H]2C[C@@](C)(OC)[C@@H](O)[C@H](C)O2)[C@H](C)[C@@H](O[C@@H]2O[C@H](C)C[C@H](N(C)C)[C@H]2O)[C@](C)(O)C[C@@H](C)C(=O)[C@H](C)[C@@H](O)[C@]1(C)O [Erythromycin, erythromycin] | 0.25 to 1 µg/mL |  |  |  |  | Resistant |  |  |  |  |  |  |  |  | Resistant | 0.4 to 0.6 µg/mL (≈ 0.545 to 0.818 µM) | 0.25 to 1 µg/mL (≈ 0.341 to 1.36 µM) | Resistant | 
3 | CC1(C)S[C@@H]2[C@H](NC(=O)[C@H](N)c3ccccc3)C(=O)N2[C@H]1C(=O)O [Ampicillin] | 0.5 to 2 µg/mL |  | resistant | R | R |  | R | R | R |  |  | R | R | R | 2 to 8 µg/mL |  |  |  | resistance
